Measured values as given in the NIST ThermoML archive (doi:10.1016/j.jct.2005.10.007).

Experiment: mn = molality of the nth substance listed, in mol/kg
Details: 350 kPa, Liquid, Extra sensitive DSC

C[C@H](N)C(=O)O [(S)-2-aminopropanoic acid] + O
apparent molar heat capacity [J/K/mol]
Details	m1 = 0.0152	m1 = 0.0299	m1 = 0.05	m1 = 0.08	m1 = 0.1247	m1 = 0.2493	m1 = 0.5149	m1 = 1.002
278.15 K	107	137	101.3	106	107	113.3	122.6	118.5
283.15 K	119	148	113.2	117.9	118.8	124.8	133.2	128.7
288.15 K	131	156	123.3	127.8	128.9	134.4	142	137.2
293.15 K	143	163	131.5	136	137.4	142.4	149.5	144.3
298.15 K	152	170	138.2	142.8	144.2	149.1	155.6	150.2
303.15 K	158	174	143.9	148.7	150.3	154.9	160.8	155.5
308.15 K	163	178	148.9	153.7	155.4	159.8	165.3	159.8
313.15 K	169	182	153.6	158	159.9	164.1	169.3	163.8
318.15 K	172	185	157.3	161.6	163.9	167.7	172.6	167.1
323.15 K	175	188	160.9	164.9	167.3	170.9	175.5	170
328.15 K	178	190	163.7	167.7	170.3	173.6	178	172.5
333.15 K	181	192	166.4	170.2	173	176.1	180.3	174.8
338.15 K	184	194	168.8	172.4	175.4	178.3	182.3	176.9
343.15 K	187	196	170.7	174.2	177.3	180.1	183.9	178.6
348.15 K	188	197	172.4	175.9	178.9	181.7	185.3	180.1
353.15 K	190	198	174	177.4	180.5	183.1	186.6	181.4
358.15 K	191	199	175.2	178.5	181.6	184.3	187.6	182.5
363.15 K	192	199	176.1	179.4	182.5	185.1	188.4	183.5
368.15 K	192	200	176.6	180.1	183.3	185.8	189	184.2
373.15 K	192	200	177.1	180.5	183.7	186.2	189.4	184.8
378.15 K	192	200	177.2	180.6	183.8	186.4	189.5	185.1
383.15 K	192	200	177.1	180.7	183.9	186.4	189.6	185.4
388.15 K	192	199	176.8	180.3	183.6	186.2	189.4	185.5
393.15 K	190	200	176.6	179.8	183.1	185.8	189.2	185.5
